Values quoted from earlier work as cited in patent US9469613B2, “(N-(cyanomethyl)-4-(2-(4-morpholinophenylamino)pyrimidin-4-yl)benzamide” (Gilead Sciences, Inc., priority 2014, dated 2016).

Test system: hyperproliferative diseases (PV, ET, PMF), myelofibrosis
Conditions: cited from earlier work

N#CCNC(=O)c1ccc(-c2ccnc(Nc3ccc(N4CCOCC4)cc3)n2)cc1 [CYT-0387, N-(cyanomethyl)-4-(2-(4-morpholinophenylamino)pyrimidin-4-yl)benzamide]
efficacy in treating hyperproliferative diseases (PV, ET, PMF) (clinical studies): effective | anemia and/or spleen responses (patients having myelofibrosis): improvement
